Assay results taken from the supplement of paper PMC8967900.

Assays:
Assay in all cases: selective drug sensitivity score (sDSS, relative to normal bone marrow) (sDSS (score)); higher = more potent and effective on the cell line relative to normal bone marrow cells
Conditions in all cases: 72 h
COG-LL-317 = tested on: COG-LL-317
MHH-CALL-3 = tested on: MHH-CALL-3
P30-OHKUBO = tested on: P30-OHKUBO
SEM cells = tested on: SEM cells
JURKAT = tested on: JURKAT
KOPN-8 = tested on: KOPN-8
ALL-SIL = tested on: ALL-SIL
RCH-ACV = tested on: RCH-ACV
CCRF-CEM = tested on: CCRF-CEM
MOLT-16 = tested on: MOLT-16
NALL-1 = tested on: NALL-1
PF-382 = tested on: PF-382
KARPAS-45 = tested on: KARPAS-45
COG-LL-355h = tested on: COG-LL-355h
MHH-CALL-4 = tested on: MHH-CALL-4
TANOUE = tested on: TANOUE
HAL-01 = tested on: HAL-01
MOLT-14 = tested on: MOLT-14
RPMI-8402 = tested on: RPMI-8402
LC4-1 = tested on: LC4-1
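Further: ALL cell lines in 384-well plates, five doses spanning 10,000-fold, each plate scaled between vehicle and 100 µmol/L benzalkonium chloride controls, sDSS an adapted area-under-curve metric.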

| Structure (SMILES) | selective drug sensitivity score (COG-LL-317) | selective drug sensitivity score (MHH-CALL-3) | selective drug sensitivity score (P30-OHKUBO) | selective drug sensitivity score (SEM cells) | selective drug sensitivity score (JURKAT) | selective drug sensitivity score (KOPN-8) | selective drug sensitivity score (ALL-SIL) | selective drug sensitivity score (RCH-ACV) | selective drug sensitivity score (CCRF-CEM) | selective drug sensitivity score (MOLT-16) | selective drug sensitivity score (NALL-1) | selective drug sensitivity score (PF-382) | selective drug sensitivity score (KARPAS-45) | selective drug sensitivity score (COG-LL-355h) | selective drug sensitivity score (MHH-CALL-4) | selective drug sensitivity score (TANOUE) | selective drug sensitivity score (HAL-01) | selective drug sensitivity score (MOLT-14) | selective drug sensitivity score (RPMI-8402) | selective drug sensitivity score (LC4-1) |
| --- | --- | --- | --- | --- | --- | --- | --- | --- | --- | --- | --- | --- | --- | --- | --- | --- | --- | --- | --- | --- |
| Cc1ccc(C(=O)Nc2cccc(C(F)(F)F)c2)cc1Nc1nc(-c2cccnc2)nc2c1cnn2C [NVP-BHG712] (top concentration 10000 nM) | 1.48 | 1.48 | 5.98 | 2.48 | 2.98 | 7.78 | 13.3 | 7.78 | 3.38 | 3.68 | 2.98 | 3.38 | 3.48 | 4.48 | 1.18 | -2.32 | 2.98 | 2.28 | 5.08 | 3.38 |
| Cn1c(Nc2ccc(C(F)(F)F)cc2)nc2cc(Oc3ccnc(-c4ncc(C(F)(F)F)[nH]4)c3)ccc21 [NVP-RAF265] (top concentration 1000 nM) | 7.28 | 7.68 | 4.38 | 4.48 | 2.88 | 4.18 | 8.28 | 6.68 | 4.88 | 8.68 | 2.88 | 1.48 | 7.68 | 10.3 | 7.48 | 0.68 | 5.68 | 6.38 | 0.98 | 7.48 |
| CC1(C)CC[C@]2(NC(=O)C(C)(F)F)CC[C@]3(C)[C@H](C(=O)C=C4[C@@]5(C)C=C(C#N)C(=O)C(C)(C)[C@@H]5CC[C@]43C)[C@@H]2C1 [Omaveloxolone] (top concentration 10000 nM) | 4.88 | 10.1 | 0.68 | 4.88 | 0.88 | 8.68 | 1.28 | 6.28 | 0.78 | 4.88 | 3.98 | 1.08 | 1.68 | 4.88 | 1.28 | -0.52 | 3.58 | 1.58 | 0.88 | 7.38 |
| CC(C)c1cc(C(=O)N2Cc3ccc(CN4CCN(C)CC4)cc3C2)c(O)cc1O [Onalespib] (top concentration 2500 nM) | 11.5 | 8.42 | 1.32 | 3.92 | -1.18 | 6.82 | 4.52 | 6.52 | 4.62 | 7.42 | -4.68 | 5.62 | 5.42 | 3.32 | -0.48 | -6.48 | 1.82 | 6.02 | 1.32 | 3.22 |
| COC[C@H](NC(=O)c1cnc(C)s1)C(=O)N[C@@H](COC)C(=O)N[C@@H](Cc1ccccc1)C(=O)[C@@]1(C)CO1 [Oprozomib] (top concentration 2500 nM) | 7.9 | 3.3 | 5.7 | 11.3 | 0.3 | 3 | -0.1 | -1.1 | 6.9 | 4.7 | 0.9 | 11.3 | 4.6 | 8.4 | 1.4 | -8.7 | -0.8 | 2.8 | 2.8 | 3.7 |
| COc1ccccc1S(=O)(=O)Nc1ccc2c(c1)CN(C)C(=O)N2 [PFI-1] (top concentration 30000 nM) | 2.5 | 5.4 | 6.1 | 4.7 | 0.8 | 17.3 | 2 | 5.4 | 1.4 | 8.6 | -4.1 | 1.8 | 3.1 | 8.7 | 2.7 | -3.2 | 0.3 | 4.4 | 2.5 | 4.2 |
| NS(=O)(=O)OC[C@@H]1C[C@@H](n2ccc3c(N[C@H]4CCc5ccccc54)ncnc32)C[C@@H]1O [Pevonedistat] (top concentration 10000 nM) | 15.7 | 7.4 | 11.1 | 9.9 | 12.6 | 13 | 13.1 | 12.3 | 16.4 | 16.7 | 9.4 | 13.2 | 12.1 | 6 | 11.5 | -3.1 | -3.5 | 13.2 | 16.2 | 10 |
| CCCCc1nc2cc(/C=C/C(=O)NO)ccc2n1CCN(CC)CC [Pracinostat] (top concentration 10000 nM) | 3.88 | 16.5 | 5.68 | 5.28 | 2.48 | 8.68 | 5.18 | 14.6 | 4.68 | 6.28 | 3.18 | 3.38 | 9.78 | 3.58 | 6.28 | -7.72 | 1.88 | 6.18 | 5.08 | 6.18 |
| COc1cccc(OCCCN)c1-c1cc(Nc2cnc(C#N)cn2)n[nH]1 [Prexasertib] (top concentration 10000 nM) | 20.2 | 13.4 | 21.3 | 15.9 | 17.4 | 20.4 | 20.8 | 20.9 | 18.8 | 21 | 19.4 | 16.9 | 17.5 | 4.24 | 11.4 | -0.86 | 19 | 18.4 | 19.2 | 19.6 |
| Cc1cn(-c2cc(NC(=O)c3ccc(C)c(Nc4nccc(-c5cnccn5)n4)c3)cc(C(F)(F)F)c2)cn1 [Radotinib] (top concentration 10000 nM) | 0 | 0 | 5.1 | 0 | 0 | 10.3 | 43.3 | 9.4 | 0 | 0.4 | 0 | 0.2 | 0 | 0 | 0 | 1.3 | 0 | 0.6 | 3.3 | 13.8 |
| Cn1nccc1Nc1nccc(-c2ccn([C@H](CO)c3ccc(Cl)c(F)c3)c(=O)c2)n1 [Ravoxertinib] (top concentration 10000 nM) | 4.8 | 9.7 | 3.5 | 0.7 | -0.8 | 13.6 | -3.2 | 4.5 | 2 | 4 | 10 | 1.2 | 2.4 | 7.7 | 11 | -3.2 | 1.9 | 0.1 | 1.9 | 7 |
| C/C=C1\NC(=O)[C@H]2CSSCC/C=C/[C@H](CC(=O)N[C@H](C(C)C)C(=O)N2)OC(=O)[C@H](C(C)C)NC1=O [Romidepsin] (top concentration 1000 nM) | 0.76 | 9.76 | 1.66 | 3.96 | 2.06 | 3.16 | 3.26 | 2.36 | 1.16 | 2.76 | 2.06 | 1.96 | 2.86 | -0.54 | 3.06 | -11 | -17.5 | 2.16 | 1.66 | 1.76 |
| CNCc1ccc(-c2[nH]c3cc(F)cc4c3c2CCNC4=O)cc1 [Rucaparib] (top concentration 10000 nM) | 6.52 | 13.8 | 0.42 | 2.72 | -0.58 | 5.12 | 0.22 | 1.02 | 1.32 | 2.72 | -0.58 | -0.58 | 0.72 | 0.92 | 5.92 | -0.58 | 4.32 | 1.62 | 0.32 | 0.32 |
| CC(C)(C)c1cnc(CSc2cnc(NC(=O)C3CCNCC3)s2)o1 [SNS-032] (top concentration 10000 nM) | 1.66 | -4.44 | -0.34 | -3.24 | -6.54 | -2.54 | -3.84 | 1.26 | -1.74 | -0.64 | -4.94 | -5.34 | -2.24 | 0.16 | -1.04 | -14 | -8.04 | -4.74 | -4.74 | -3.24 |
| Cc1c(C(=O)Nc2ccc(N3C[C@@H](C)O[C@@H](C)C3)nc2)cccc1-c1ccc(OC(F)(F)F)cc1 [Sonidegib] (top concentration 10000 nM) | -1.02 | -3.92 | 5.68 | -3.92 | 2.48 | 10.5 | 1.08 | 5.78 | -0.12 | 3.18 | 7.58 | 2.28 | 0.68 | -3.92 | 2.28 | -2.42 | -3.92 | 0.38 | 1.88 | 1.08 |
| CNC(=O)c1cc(Oc2ccc(NC(=O)Nc3ccc(Cl)c(C(F)(F)F)c3)cc2)ccn1 [Sorafenib] (top concentration 1000 nM) | 0 | 0 | 2.2 | 15.1 | 0.4 | 2 | 0 | 1.4 | 0 | 0 | 0 | 1.3 | 0.5 | 0 | 0 | 0 | 2.9 | 0 | 0 | 0 |
| CN1CCN(c2nc(C3=C(c4c[nH]c5ccccc45)C(=O)NC3=O)c3ccccc3n2)CC1 [Sotrastaurin] (top concentration 10000 nM) | 0 | 5.8 | 3.1 | 6.7 | -1.7 | 6.4 | 2.7 | 3.4 | -0.1 | 4.4 | 1.9 | -1.9 | -0.4 | 5.7 | 4.2 | -2.3 | 2.3 | -2 | 0 | 1.7 |
| Cc1cc(C(C)Nc2ccccc2)c2nc(N3CCOCC3)cc(=O)n2c1 (stereo not given) [TGX-221] (top concentration 10000 nM) | -1.64 | -1.64 | 3.36 | 5.46 | -0.74 | -1.64 | -1.64 | 13.5 | -0.54 | -1.34 | -0.44 | -0.84 | 1.46 | 2.96 | -1.44 | -0.94 | 7.86 | -1.14 | -0.04 | -1.64 |
